This is an account of results in patent US20080020977A1, “Use of Fullerenes to Oxidize Reduced Redox Proteins” (priority 2005, published 2008).

The subject of one assay is mice. The following applies: oral, about 0.5 mg/kg/day, cited from earlier work.
The subject of the next assay is cytochrome c. Put plainly: Oxidation state of cytochrome c in the xanthine/xanthine oxidase system (absorbance at 550 nm). It is filed as biochemical. The following applies: substituted fullerene added at time zero; versus blank without fullerene; data not shown. Here is the method:
The reduction of cytochrome c was performed by employing the xanthine/xanthine oxidase system. The reaction was initiated by the addition of xanthine oxidase (7.5×10^−3 units) to an incubation mixture containing 50 mM potassium phosphate, 0.1 mM EDTA, 0.01 mM cytochrome c, and 0.05 mM xanthine. Xanthine oxidase catalyzed the formation of superoxide radicals, which then reduced cytochrome c to the ferrous form. Reduction of cytochrome c was followed by recording the corresponding increase in the absorbance at 550 nm, using the molar absorption coefficients of 9 mmol^−1cm^−1 and 27.7 mmol^−1cm^−1 for the oxidized (ferric) and reduced (ferrous) forms, respectively. All assays were performed at room temperature. A volume of 3 mL was used in each experiment.
The effect of fullerenes on the oxidation state of cytochrome c was studied using substituted fullerenes C3 and DF-1, described above, wherein the substituted fullerene was added to the reaction mixture at 5, 10, or 15 minutes after addition of xanthine oxidase. Results are shown in FIG. 11, with time=0 for each run being the moment when the substituted fullerene was added. In the negative control, without fullerene (blank), reduction of cytochrome c (increase of absorbance at 550 nm) can be seen over 600 sec. […]

On to (C60(>C(COOH)2)3) [C3], for which the mean survival in the assay with mice (controls 23.5+/−5.5 months) is on record as 28.7+/−3.3 months. Further, the “increase in mean survival relative to controls” value in the assay with mice (p=0.033) was ~20%. In addition, the “extent and rate of reduction of cytochrome c (increase of absorbance at 550 nm)” value with cytochrome c is “reduced”.
